Assay results taken from PubChem BioAssay (NCI).
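Cultured in 96-well plates, cells were exposed to test compound for 48 hours across five concentrations. Abbreviation: GI50, concentration required for 50% inhibition of growth. TGI marks complete inhibition of growth.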 *1 amine or outer side, *2 acyl side, *3 side chain or, on linkers, in order; H or OH if unused. Where a SMILES comes first, the peptide text is derived from it. CO = O=C([*:1])[*:2]

What was measured:
Test in all cases: NCI anticancer screen, dose series, 48 h
A498 renal = tested on: A498 renal
CCRF-CEM leukemia = tested on: CCRF-CEM leukemia
HCC-2998 colon = tested on: HCC-2998 colon
HCT-116 colon = tested on: HCT-116 colon
SK-MEL-5 melanoma = tested on: SK-MEL-5 melanoma
SR leukemia = tested on: SR leukemia
UACC-62 melanoma = tested on: UACC-62 melanoma
UO-31 renal = tested on: UO-31 renal
HCT-15 colon = tested on: HCT-15 colon
BT-549 breast = tested on: BT-549 breast

COc1ccc2c(c1)/C(=C/c1c(-c3ccc(C)cc3)nc3sc(C)cn13)C(=O)N2
GI50 (A498 renal): 20.2 µM
TGI (A498 renal): 60.6 µM
GI50 (CCRF-CEM leukemia): 6.84 µM
TGI (CCRF-CEM leukemia): 80.3 µM
GI50 (HCC-2998 colon): 13.4 µM
TGI (HCC-2998 colon): 43.7 µM
GI50 (HCT-116 colon): 4.71 µM
TGI (HCT-116 colon): 18.7 µM
GI50 (SK-MEL-5 melanoma): 11.9 µM
TGI (SK-MEL-5 melanoma): 30.5 µM
GI50 (SR leukemia): 1.59 µM
TGI (SR leukemia): 28.7 µM
GI50 (UACC-62 melanoma): 13.1 µM
TGI (UACC-62 melanoma): 32.5 µM
GI50 (UO-31 renal): 10.5 µM
TGI (UO-31 renal): > 100 µM

CCCN1C(=O)/C(=C/c2ccc(O)cc2)SC1=Nc1ccccc1
GI50 (CCRF-CEM leukemia): > 100 µM
TGI (CCRF-CEM leukemia): > 100 µM
GI50 (HCC-2998 colon): 22.9 µM
TGI (HCC-2998 colon): 47.4 µM
GI50 (HCT-116 colon): 17.5 µM
TGI (HCT-116 colon): 31.3 µM
GI50 (HCT-15 colon): 16.9 µM
TGI (HCT-15 colon): 37.5 µM
GI50 (SK-MEL-5 melanoma): 22.8 µM
TGI (SK-MEL-5 melanoma): 46 µM
GI50 (SR leukemia): 14 µM
TGI (SR leukemia): > 100 µM
GI50 (UACC-62 melanoma): 21 µM
TGI (UACC-62 melanoma): 45.3 µM
GI50 (UO-31 renal): 38.3 µM
TGI (UO-31 renal): > 100 µM

N#C/C(=C\c1ccc(Br)cc1)n1nnc2cc(F)c(F)cc21
GI50 (A498 renal): 1.74 µM
TGI (A498 renal): 3.2 µM
GI50 (BT-549 breast): 1.74 µM
TGI (BT-549 breast): 4.51 µM
GI50 (CCRF-CEM leukemia): 1.48 µM
TGI (CCRF-CEM leukemia): 8.81 µM
GI50 (HCC-2998 colon): 2.02 µM
TGI (HCC-2998 colon): 3.67 µM
GI50 (HCT-116 colon): 1.56 µM
TGI (HCT-116 colon): 3.44 µM
GI50 (HCT-15 colon): 1.34 µM
TGI (HCT-15 colon): 2.93 µM
GI50 (SK-MEL-5 melanoma): 1.76 µM
TGI (SK-MEL-5 melanoma): 3.17 µM
GI50 (UACC-62 melanoma): 1.46 µM
TGI (UACC-62 melanoma): 3 µM
GI50 (UO-31 renal): 1.46 µM
TGI (UO-31 renal): 2.78 µM

C[C@]12CC[C@H]3[C@@H](CC=C4C[C@@H](O)CC[C@@]43C)[C@@H]1C/C(=C\c1cccc(OCCCn3ccnc3)c1)[C@@H]2O
GI50 (A498 renal): 13.4 µM
TGI (A498 renal): 26.8 µM
GI50 (CCRF-CEM leukemia): 13 µM
TGI (CCRF-CEM leukemia): 68.7 µM
GI50 (HCC-2998 colon): 17.8 µM
TGI (HCC-2998 colon): 34.1 µM
GI50 (HCT-116 colon): 5.99 µM
TGI (HCT-116 colon): 21.1 µM
GI50 (HCT-15 colon): 10.2 µM
TGI (HCT-15 colon): 38.9 µM
GI50 (SK-MEL-5 melanoma): 6.26 µM
TGI (SK-MEL-5 melanoma): 20.4 µM
GI50 (SR leukemia): 6.67 µM
TGI (SR leukemia): 47.7 µM
GI50 (UACC-62 melanoma): 13.2 µM
TGI (UACC-62 melanoma): 29 µM
GI50 (UO-31 renal): 13 µM
TGI (UO-31 renal): 28.3 µM

CC(C)C(NC(=O)C(CCCN=C(N)N)NC(=O)NC(Cc1ccccc1)C(=O)O)C(=O)NC(C=O)CCCN=C(N)N (stereo not drawn) ({Phe-CO}-Arg-Val-Arg-aldehyde; configuration not given here)
GI50 (A498 renal): > 5 µM
TGI (A498 renal): > 5 µM
GI50 (BT-549 breast): > 5 µM
TGI (BT-549 breast): > 5 µM
GI50 (HCC-2998 colon): 0.0202 µM
TGI (HCC-2998 colon): > 5 µM
GI50 (HCT-116 colon): > 5 µM
TGI (HCT-116 colon): > 5 µM
GI50 (HCT-15 colon): > 5 µM
TGI (HCT-15 colon): > 5 µM
GI50 (SK-MEL-5 melanoma): > 5 µM
TGI (SK-MEL-5 melanoma): > 5 µM
GI50 (UACC-62 melanoma): > 5 µM
TGI (UACC-62 melanoma): > 5 µM
GI50 (UO-31 renal): > 5 µM
TGI (UO-31 renal): > 5 µM

COc1ccc2c(c1)C(=O)c1c-2c(N2CCN(C(=O)CN(C)C)CC2)nc2ccccc12
GI50 (A498 renal): 15.4 µM
TGI (A498 renal): 31.8 µM
GI50 (BT-549 breast): 14.5 µM
TGI (BT-549 breast): 33.5 µM
GI50 (CCRF-CEM leukemia): 10.7 µM
TGI (CCRF-CEM leukemia): 27.1 µM
GI50 (HCC-2998 colon): 15.2 µM
TGI (HCC-2998 colon): 40.5 µM
GI50 (HCT-116 colon): 11.6 µM
TGI (HCT-116 colon): 26.3 µM
GI50 (HCT-15 colon): 14.4 µM
TGI (HCT-15 colon): 32.3 µM
GI50 (SK-MEL-5 melanoma): 18.2 µM
TGI (SK-MEL-5 melanoma): 34.6 µM
GI50 (UACC-62 melanoma): 15.3 µM
TGI (UACC-62 melanoma): 37.3 µM
GI50 (UO-31 renal): 10.4 µM
TGI (UO-31 renal): 26 µM

COC1=CC(C)C2C[C@H]3O[C@H](O)C[C@H]4C(C)C(=O)C(O)C([C@@]2(C)C1=O)[C@@]34C (stereo partly specified)
TGI (A498 renal): > 100 µM
TGI (CCRF-CEM leukemia): > 100 µM
TGI (HCC-2998 colon): > 100 µM
TGI (HCT-116 colon): > 100 µM
TGI (HCT-15 colon): > 100 µM
TGI (SK-MEL-5 melanoma): > 100 µM
TGI (UACC-62 melanoma): > 100 µM
TGI (UO-31 renal): > 100 µM

CC(=O)Oc1cc2c(=O)oc3c(OC(C)=O)c(OC(C)=O)c(OC(C)=O)c4c(=O)oc(c1OC(C)=O)c2c34
TGI (A498 renal): > 100 µM
TGI (CCRF-CEM leukemia): 63.3 µM
TGI (HCC-2998 colon): > 100 µM
TGI (HCT-116 colon): 52.6 µM
TGI (HCT-15 colon): > 100 µM
TGI (SK-MEL-5 melanoma): > 100 µM
TGI (SR leukemia): > 100 µM
TGI (UACC-62 melanoma): > 100 µM
TGI (UO-31 renal): > 100 µM

COc1ccc(C2c3cc4c(cc3OC(O)(CO)C2C(=O)O)OCO4)c(OC)c1OC (stereo unspecified) (tested in a mixture with another compound)
TGI (CCRF-CEM leukemia): > 100 µM
TGI (HCT-116 colon): > 100 µM
TGI (HCT-15 colon): > 100 µM
TGI (SK-MEL-5 melanoma): > 100 µM
TGI (UACC-62 melanoma): > 100 µM
TGI (UO-31 renal): > 100 µM

CCOC(=O)c1ccc(C(O)CC(=O)OC(C)(C)C)[nH]1 (stereo unspecified)
GI50 (A498 renal): 23.7 µM
TGI (A498 renal): > 100 µM
GI50 (CCRF-CEM leukemia): 29.6 µM
TGI (CCRF-CEM leukemia): 88 µM
GI50 (HCC-2998 colon): 33 µM
TGI (HCC-2998 colon): > 100 µM
GI50 (HCT-116 colon): 23.2 µM
TGI (HCT-116 colon): 68.4 µM
GI50 (HCT-15 colon): 34.4 µM
TGI (HCT-15 colon): > 100 µM
GI50 (SK-MEL-5 melanoma): 27.3 µM
TGI (SK-MEL-5 melanoma): 89 µM
GI50 (SR leukemia): 22.4 µM
TGI (SR leukemia): > 100 µM
GI50 (UACC-62 melanoma): 26.5 µM
TGI (UACC-62 melanoma): 81.3 µM
GI50 (UO-31 renal): 38.5 µM
TGI (UO-31 renal): > 100 µM

O=C(Nc1ccc(N=Nc2ccccc2)cc1)Sc1ccccc1C(=O)O
TGI (A498 renal): > 100 µM
TGI (HCC-2998 colon): > 100 µM
TGI (HCT-116 colon): > 100 µM
TGI (HCT-15 colon): > 100 µM
TGI (SR leukemia): > 100 µM
TGI (UACC-62 melanoma): > 100 µM
TGI (UO-31 renal): > 100 µM

Cc1ccc(C2=NN(C)COC2C(F)(F)F)cc1 (stereo unspecified)
TGI (CCRF-CEM leukemia): > 100 µM
TGI (HCC-2998 colon): > 100 µM
TGI (HCT-116 colon): > 100 µM
TGI (HCT-15 colon): > 100 µM
TGI (SK-MEL-5 melanoma): > 100 µM
TGI (SR leukemia): > 100 µM
TGI (UACC-62 melanoma): > 100 µM
TGI (UO-31 renal): > 100 µM

CC1CC(C)C(=O)C(C(=O)CC2CC(=O)NC2=O)C1 (stereo unspecified)
TGI (A498 renal): > 100 µM
TGI (CCRF-CEM leukemia): > 100 µM
TGI (HCC-2998 colon): > 100 µM
TGI (HCT-116 colon): > 100 µM
TGI (SR leukemia): > 100 µM
TGI (UACC-62 melanoma): > 100 µM
TGI (UO-31 renal): > 100 µM

O=C1OC2(c3ccccc31)c1cc(I)c(O)c(I)c1Oc1c2cc(I)c(O)c1I
TGI (BT-549 breast): > 100 µM
TGI (CCRF-CEM leukemia): > 100 µM
TGI (HCT-116 colon): > 100 µM
TGI (HCT-15 colon): > 100 µM
TGI (SK-MEL-5 melanoma): > 100 µM
TGI (SR leukemia): > 100 µM
TGI (UACC-62 melanoma): > 100 µM
TGI (UO-31 renal): > 100 µM

CCSc1nc(=S)[nH]c2[nH]ncc12
GI50 (A498 renal): 21.6 µM
TGI (A498 renal): 72.7 µM
GI50 (BT-549 breast): > 100 µM
TGI (BT-549 breast): > 100 µM
GI50 (CCRF-CEM leukemia): 59 µM
TGI (CCRF-CEM leukemia): > 100 µM
GI50 (HCC-2998 colon): 59.1 µM
TGI (HCC-2998 colon): > 100 µM
GI50 (HCT-116 colon): > 100 µM
TGI (HCT-116 colon): > 100 µM
GI50 (HCT-15 colon): > 100 µM
TGI (HCT-15 colon): > 100 µM
GI50 (SK-MEL-5 melanoma): 59.1 µM
TGI (SK-MEL-5 melanoma): > 100 µM
GI50 (UACC-62 melanoma): 66.3 µM
TGI (UACC-62 melanoma): > 100 µM
GI50 (UO-31 renal): 75.2 µM
TGI (UO-31 renal): > 100 µM

O=C(CC1(O)C(=O)Nc2ccccc21)c1ccc(O)cc1O (stereo unspecified)
TGI (A498 renal): > 100 µM
TGI (HCT-116 colon): > 100 µM
TGI (HCT-15 colon): > 100 µM
TGI (SK-MEL-5 melanoma): > 100 µM
TGI (UACC-62 melanoma): > 100 µM
TGI (UO-31 renal): > 100 µM

C/C=C/CP(=O)(c1ccccc1)c1ccccc1
TGI (A498 renal): > 100 µM
TGI (CCRF-CEM leukemia): > 100 µM
TGI (HCC-2998 colon): > 100 µM
TGI (HCT-116 colon): > 100 µM
TGI (HCT-15 colon): > 100 µM
TGI (SK-MEL-5 melanoma): > 100 µM
TGI (SR leukemia): > 100 µM
TGI (UACC-62 melanoma): > 100 µM
TGI (UO-31 renal): > 100 µM
